According to patent US12194018B2, “Cannabinoid compositions” (SRE Wellness, Inc., priority 2016, dated 2025):

Columns and labels:
[1] = edible Cannabis products; depending on liver function; cited from earlier work
[2] = in vivo; cited from earlier work
[3] = Emulsifying agents tested for emulsification of coconut oil and water (Example 2); type: physicochemical; details: coconut oils solid and liquid (MCT)
Excerpt: Several experiments were run using several different emulsifiers and combinations of different coconut oils: solid and liquid (MCT). (Note: liquid MCT is coconut oil that has medium chain triglyceride).

CCCCCc1cc(O)c2c(c1)OC(C)(C)[C@@H]1CCC(C)=C[C@@H]21 [THC, Δ^9-tetrahydrocannabinol]
Share of the THC able to be metabolized [1]: 2-6%
Risk of lethal overdose [2]: no risk of lethal overdose

cyclodextrin
Effectiveness as emulsifying agent (emulsification of the oil and water) [3]: good results

C=C(C)[C@@H]1CCC(C)=C[C@H]1c1c(O)cc(CCCCC)cc1O [CBD, cannabidiol]
Risk of lethal overdose [2]: no risk of lethal overdose
